In ChEMBL document CHEMBL5236672, “Discovery of indole-piperazine derivatives as selective histone deacetylase 6 inhibitors with neurite outgrowth-promoting activities and neuroprotective activities” (Bioorg Med Chem Lett, 2023) one finds IC50, Activity and Ratio IC50 data, which are given here for 13 molecules.

The target of series [1] is T1, Protein deacetylase HDAC6 (Homo sapiens, UniProt Q9UBN7).
T1 sequence (Q9UBN7 whole entry): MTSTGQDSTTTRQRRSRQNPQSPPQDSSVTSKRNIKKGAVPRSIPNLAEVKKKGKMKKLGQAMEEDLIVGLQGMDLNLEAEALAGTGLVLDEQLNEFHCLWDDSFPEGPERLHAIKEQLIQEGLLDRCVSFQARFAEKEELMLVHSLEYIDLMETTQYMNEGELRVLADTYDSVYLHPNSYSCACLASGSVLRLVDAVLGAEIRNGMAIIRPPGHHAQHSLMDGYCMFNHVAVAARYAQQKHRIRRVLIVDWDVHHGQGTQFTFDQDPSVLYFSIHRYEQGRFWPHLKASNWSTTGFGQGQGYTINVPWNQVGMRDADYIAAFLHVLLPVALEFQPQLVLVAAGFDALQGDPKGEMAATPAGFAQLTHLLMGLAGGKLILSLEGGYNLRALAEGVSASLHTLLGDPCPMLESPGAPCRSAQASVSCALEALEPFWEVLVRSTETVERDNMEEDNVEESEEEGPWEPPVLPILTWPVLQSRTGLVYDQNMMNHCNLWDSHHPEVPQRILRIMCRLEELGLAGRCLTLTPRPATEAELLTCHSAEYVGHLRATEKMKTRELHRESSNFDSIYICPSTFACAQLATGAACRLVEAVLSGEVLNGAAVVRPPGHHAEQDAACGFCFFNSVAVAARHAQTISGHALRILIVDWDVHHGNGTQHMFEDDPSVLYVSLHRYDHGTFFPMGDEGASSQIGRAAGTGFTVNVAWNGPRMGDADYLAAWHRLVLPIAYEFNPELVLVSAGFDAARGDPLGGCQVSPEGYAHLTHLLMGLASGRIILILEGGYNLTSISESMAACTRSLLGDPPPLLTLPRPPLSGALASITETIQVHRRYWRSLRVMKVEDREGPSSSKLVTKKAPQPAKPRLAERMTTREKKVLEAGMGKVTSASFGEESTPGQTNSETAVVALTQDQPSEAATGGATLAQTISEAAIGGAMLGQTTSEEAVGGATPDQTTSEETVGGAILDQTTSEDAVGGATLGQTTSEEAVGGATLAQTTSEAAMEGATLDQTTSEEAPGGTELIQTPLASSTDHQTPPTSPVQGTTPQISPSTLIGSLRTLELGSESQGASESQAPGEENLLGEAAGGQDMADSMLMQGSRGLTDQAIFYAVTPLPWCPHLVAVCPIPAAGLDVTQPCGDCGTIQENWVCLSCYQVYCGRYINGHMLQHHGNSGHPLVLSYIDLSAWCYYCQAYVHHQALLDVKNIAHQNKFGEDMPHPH
The experiment in a line: Inhibition of HDAC6 (unknown origin) using fluorogenic peptide RHKKAc-AMC as substrate by fluorescence-based assay.

Series [2] addresses Histone deacetylase 1 (Homo sapiens, UniProt Q13547). Put plainly: Inhibition of HDAC1 (unknown origin) using fluorogenic peptide RHKKAc-AMC as substrate by fluorescence-based assay.
The test system of series [3] is PC-12. Put plainly: Neuroprotective activity in rat PC-12 cells assessed as increase in NGF-mediated neurite outgrowth at 3 uM incubated for 48 hrs by phase contrast microscopic analysis. It counts as functional.
For series [4], the species on record is Homo sapiens. Put plainly: Selectivity index, ratio of IC50 for inhibition of HDAC1 (unknown origin) to IC50 for inhibition of HDAC6 (unknown origin).
Series [5] relates to PC-12. The experiment in a line: Neuroprotective activity against H202-induced oxidative damage in rat PC-12 cells assessed as increase in cell viability at 1 to 10 uM. It counts as functional, cell-based. To be noted: dose 1-10 µM.
Series [6] relates to PC-12. The experiment in a line: Neuroprotective activity in rat PC-12 cells assessed as increase in NGF-mediated neurite outgrowth at 1 to 10 uM incubated for 48 hrs by phase contrast microscopic analysis. To be noted: dose 1-10 µM. It counts as functional, cell-based.
The subject of series [7] is PC-12. Put plainly: Cytotoxicity against rat PC-12 cells assessed as reduction in cell viability at 10 uM. To be noted: pc-12, 10 µM. In kind it is toxicity, cell-based.
Series [8] deals with Histone deacetylase 2 (Homo sapiens, UniProt Q92769). The experiment in a line: Inhibition of HDAC2 (unknown origin) using fluorogenic peptide RHKKAc-AMC as substrate by fluorescence-based assay.
For series [9], the target named is Histone deacetylase 3 (Homo sapiens, UniProt O15379). The experiment in a line: Inhibition of HDAC3 (unknown origin) using fluorogenic peptide RHKKAc-AMC as substrate by fluorescence-based assay.
For series [10], the system named is PC-12. The experiment in a line: Neuroprotective activity in rat PC-12 cells assessed as increase in NGF-mediated neurite outgrowth at 10 uM incubated for 48 hrs by phase contrast microscopic analysis. It counts as functional.
Series [11] addresses Histone deacetylase 5 (Homo sapiens, UniProt Q9UQL6). The experiment in a line: Inhibition of HDAC5 (unknown origin) using trifluoroacetyl lysine as substrate by fluorescence-based assay.
The test system of series [12] is PC-12. Put plainly: Neuroprotective activity against H202-induced oxidative damage in rat PC-12 cells assessed as increase in cell viability at 10 uM. It counts as functional.

Each structure is given as a SMILES string.

Chain of Histone deacetylase 1 (Q13547 whole entry): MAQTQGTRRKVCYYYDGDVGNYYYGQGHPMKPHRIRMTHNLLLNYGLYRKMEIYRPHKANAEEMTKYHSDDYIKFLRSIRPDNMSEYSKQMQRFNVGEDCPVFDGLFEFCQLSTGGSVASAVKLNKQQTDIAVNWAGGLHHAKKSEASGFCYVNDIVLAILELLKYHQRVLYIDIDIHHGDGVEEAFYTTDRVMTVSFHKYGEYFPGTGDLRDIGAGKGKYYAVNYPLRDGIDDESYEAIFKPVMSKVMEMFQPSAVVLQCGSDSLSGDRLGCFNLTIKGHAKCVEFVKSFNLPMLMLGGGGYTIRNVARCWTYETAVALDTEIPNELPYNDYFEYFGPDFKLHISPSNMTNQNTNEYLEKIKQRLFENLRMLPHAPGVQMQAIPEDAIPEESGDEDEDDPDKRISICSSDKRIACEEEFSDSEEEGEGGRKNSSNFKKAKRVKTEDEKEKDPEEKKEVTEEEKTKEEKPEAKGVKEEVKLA
Chain of Histone deacetylase 3 (O15379 whole entry): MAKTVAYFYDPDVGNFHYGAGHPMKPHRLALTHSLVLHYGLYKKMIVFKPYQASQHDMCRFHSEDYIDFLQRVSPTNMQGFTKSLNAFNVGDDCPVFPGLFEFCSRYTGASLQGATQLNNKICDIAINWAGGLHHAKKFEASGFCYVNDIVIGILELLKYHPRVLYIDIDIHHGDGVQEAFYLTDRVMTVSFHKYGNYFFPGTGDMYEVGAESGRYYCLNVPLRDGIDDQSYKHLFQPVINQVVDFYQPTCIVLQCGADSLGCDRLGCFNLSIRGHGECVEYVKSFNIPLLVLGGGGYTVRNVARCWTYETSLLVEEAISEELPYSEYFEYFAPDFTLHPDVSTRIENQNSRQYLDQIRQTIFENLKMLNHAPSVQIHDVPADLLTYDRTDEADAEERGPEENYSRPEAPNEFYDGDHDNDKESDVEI
Chain of Histone deacetylase 5 (Q9UQL6 whole entry): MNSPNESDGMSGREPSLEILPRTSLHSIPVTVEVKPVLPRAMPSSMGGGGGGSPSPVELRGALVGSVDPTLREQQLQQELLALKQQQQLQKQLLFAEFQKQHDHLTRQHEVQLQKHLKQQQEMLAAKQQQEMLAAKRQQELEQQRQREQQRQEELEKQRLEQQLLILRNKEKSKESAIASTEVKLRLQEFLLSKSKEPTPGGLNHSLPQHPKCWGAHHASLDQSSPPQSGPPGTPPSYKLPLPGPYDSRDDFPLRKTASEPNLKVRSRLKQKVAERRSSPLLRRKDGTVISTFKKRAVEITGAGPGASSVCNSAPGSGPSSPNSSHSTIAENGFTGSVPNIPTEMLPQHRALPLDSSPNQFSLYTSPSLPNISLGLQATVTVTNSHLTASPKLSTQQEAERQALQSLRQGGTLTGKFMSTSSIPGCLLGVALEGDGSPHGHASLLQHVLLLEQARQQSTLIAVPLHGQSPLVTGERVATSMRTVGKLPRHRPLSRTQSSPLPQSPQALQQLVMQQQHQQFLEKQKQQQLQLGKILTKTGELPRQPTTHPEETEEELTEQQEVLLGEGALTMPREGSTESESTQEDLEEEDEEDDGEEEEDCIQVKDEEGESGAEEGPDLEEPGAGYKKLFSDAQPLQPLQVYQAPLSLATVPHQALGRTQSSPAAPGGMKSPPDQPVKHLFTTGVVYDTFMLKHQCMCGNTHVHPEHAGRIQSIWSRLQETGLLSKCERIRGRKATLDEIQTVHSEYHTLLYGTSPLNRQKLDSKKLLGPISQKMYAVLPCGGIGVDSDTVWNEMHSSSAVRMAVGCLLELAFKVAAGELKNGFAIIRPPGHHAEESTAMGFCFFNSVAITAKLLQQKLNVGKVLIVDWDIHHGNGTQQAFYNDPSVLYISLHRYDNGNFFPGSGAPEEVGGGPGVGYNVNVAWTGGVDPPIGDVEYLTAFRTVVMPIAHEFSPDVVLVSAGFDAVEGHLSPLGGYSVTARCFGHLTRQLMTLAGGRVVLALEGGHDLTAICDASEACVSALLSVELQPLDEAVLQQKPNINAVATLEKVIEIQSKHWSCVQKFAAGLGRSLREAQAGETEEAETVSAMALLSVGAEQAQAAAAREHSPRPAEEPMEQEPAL
Chain of Histone deacetylase 2 (Q92769 whole entry): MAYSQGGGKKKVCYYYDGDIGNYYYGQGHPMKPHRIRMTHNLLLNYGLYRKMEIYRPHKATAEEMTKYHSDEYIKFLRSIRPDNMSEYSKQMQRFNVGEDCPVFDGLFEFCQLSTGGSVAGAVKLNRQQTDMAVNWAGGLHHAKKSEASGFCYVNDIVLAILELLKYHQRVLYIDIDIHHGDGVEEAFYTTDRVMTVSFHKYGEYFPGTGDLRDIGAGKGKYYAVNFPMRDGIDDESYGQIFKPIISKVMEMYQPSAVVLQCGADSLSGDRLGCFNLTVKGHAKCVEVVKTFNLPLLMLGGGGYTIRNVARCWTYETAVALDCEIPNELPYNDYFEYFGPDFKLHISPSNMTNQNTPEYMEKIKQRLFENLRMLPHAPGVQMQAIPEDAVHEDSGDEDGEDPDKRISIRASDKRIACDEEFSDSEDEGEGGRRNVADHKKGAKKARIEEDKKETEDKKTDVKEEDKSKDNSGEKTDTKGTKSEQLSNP

As a reminder, the IC50 is the concentration at which inhibition is half-maximal. Take `O=C(NO)c1ccc(CN2CCN(C(=O)c3c[nH]c4ccccc34)CC2)cc1`: the IC50 was 14.4 nM in series [1] and 1260 nM in series [2]. Also, in series [3], the Activity is recorded as 12.3%. In addition, in [4], the Ratio IC50 was 87.
The corresponding values for `O=C(NO)c1ccc(CN2CCN(C(=O)c3c[nH]c4ccc(Cl)cc34)CC2)cc1` are 26 nM, 1430 nM, 12.3% and 55.
In the case of `O=C(NO)c1ccc(CN2CCN(C(=O)c3c[nH]c4cc(F)ccc34)CC2)cc1`, the half-inhibitory concentration (IC50) in series [1] is 14 nM; in series [2], 1190 nM. Further, the Activity in series [3] amounted to 12.3%. Moreover, in series [4], the Ratio IC50 came to 85.
With `O=C(NO)c1ccc(CN2CCN(C(=O)c3cc4ccccc4[nH]3)CC2)cc1`, the IC50 in [1] came to 88.5 nM.
Turning to `O=C(NO)c1ccc(CN2CC(=O)N(Cc3ccccc3)C(Cc3ccccc3)C2=O)cc1` (centres undefined), the Activity in [3] is 12.3%.
Still for that read-out and setting: next, `CN1C(=O)CN(Cc2ccc(C(=O)NO)cc2)C(=O)C1Cc1ccccc1` (centres undefined): 12.3%.
As for `CN1CCc2c(c3ccccc3n2Cc2ccc(C(=O)NO)cc2)C1`, the Activity result in series [5] was “Dose-Dependent Effect”.
Regarding `O=C1CN(Cc2ccc(C(=O)NO)cc2)C(=O)[C@@H](Cc2c[nH]c3ccccc23)N1`, the Activity in series [3] came to 12.3%.
On to `O=C(NO)c1ccc(CN2CCN(C(=O)c3c[nH]c4cc(OCc5ccccc5)ccc34)CC2)cc1`, for which the IC50 turned out to be 23.4 nM in series [1] and 1050 nM in series [2]. Moreover, the Activity entry in [6] was “Dose-Dependent Effect”; in series [3], 37.3%; in series [7], “Toxic”. Besides, the Ratio IC50 in series [4] came out at 45.
Turning to `C=CCN1C(=O)CN(Cc2ccc(C(=O)NO)cc2)C(=O)C1Cc1ccccc1` (centres undefined), the Activity in series [3] worked out at 12.3%.
In the case of `Cc1cccc2c(C(=O)N3CCN(Cc4ccc(C(=O)NO)cc4)CC3)c[nH]c12`, the IC50 in series [1] is 13.6 nM; in series [2], 1390 nM; in series [8] it was 2250 nM; in series [9], 1850 nM; in series [11] it was more than 50000 nM. For the same molecule, the Activity entry in series [6] was “Dose-Dependent Effect”; in [10] it was 12.3%; in series [3], 34.7%; in series [12], 78.5%; in series [5], “Dose-Dependent Effect”; in series [7], 39.1%. Also, in series [4], the Ratio IC50 is 102.
As for `O=C(NO)c1ccc(CN2CCN(C(=O)c3c[nH]c4cccc(Cc5ccccc5)c34)CC2)cc1`, the IC50 in series [1] is 78.5 nM; in series [2] it was more than 50000 nM. Further, the Activity result is “Dose-Dependent Effect” in series [6] and 31.8% in [3].
With `Cn1cc(C(=O)N2CCN(Cc3ccc(C(=O)NO)cc3)CC2)c2ccccc21`, the IC50 in [1] was found to be 55.2 nM; in [2] it was 2180 nM. Moreover, the Activity in series [3] worked out at 27.5%. Moreover, the Ratio IC50 in series [4] is 39.
